From ChEMBL document CHEMBL4811304, “Design, synthesis and biological evaluation of dual mTOR/HDAC6 inhibitors in MDA-MB-231 cells” (Bioorg Med Chem Lett, 2021)
The source made the active and inactive calls. No cut-off for these calls is given here.

Columns and labels:
[1] = biological target: T1, Protein deacetylase HDAC6 (Homo sapiens, UniProt Q9UBN7); assay: Inhibition of HDAC6 (unknown origin)
T1 sequence (Q9UBN7 whole entry): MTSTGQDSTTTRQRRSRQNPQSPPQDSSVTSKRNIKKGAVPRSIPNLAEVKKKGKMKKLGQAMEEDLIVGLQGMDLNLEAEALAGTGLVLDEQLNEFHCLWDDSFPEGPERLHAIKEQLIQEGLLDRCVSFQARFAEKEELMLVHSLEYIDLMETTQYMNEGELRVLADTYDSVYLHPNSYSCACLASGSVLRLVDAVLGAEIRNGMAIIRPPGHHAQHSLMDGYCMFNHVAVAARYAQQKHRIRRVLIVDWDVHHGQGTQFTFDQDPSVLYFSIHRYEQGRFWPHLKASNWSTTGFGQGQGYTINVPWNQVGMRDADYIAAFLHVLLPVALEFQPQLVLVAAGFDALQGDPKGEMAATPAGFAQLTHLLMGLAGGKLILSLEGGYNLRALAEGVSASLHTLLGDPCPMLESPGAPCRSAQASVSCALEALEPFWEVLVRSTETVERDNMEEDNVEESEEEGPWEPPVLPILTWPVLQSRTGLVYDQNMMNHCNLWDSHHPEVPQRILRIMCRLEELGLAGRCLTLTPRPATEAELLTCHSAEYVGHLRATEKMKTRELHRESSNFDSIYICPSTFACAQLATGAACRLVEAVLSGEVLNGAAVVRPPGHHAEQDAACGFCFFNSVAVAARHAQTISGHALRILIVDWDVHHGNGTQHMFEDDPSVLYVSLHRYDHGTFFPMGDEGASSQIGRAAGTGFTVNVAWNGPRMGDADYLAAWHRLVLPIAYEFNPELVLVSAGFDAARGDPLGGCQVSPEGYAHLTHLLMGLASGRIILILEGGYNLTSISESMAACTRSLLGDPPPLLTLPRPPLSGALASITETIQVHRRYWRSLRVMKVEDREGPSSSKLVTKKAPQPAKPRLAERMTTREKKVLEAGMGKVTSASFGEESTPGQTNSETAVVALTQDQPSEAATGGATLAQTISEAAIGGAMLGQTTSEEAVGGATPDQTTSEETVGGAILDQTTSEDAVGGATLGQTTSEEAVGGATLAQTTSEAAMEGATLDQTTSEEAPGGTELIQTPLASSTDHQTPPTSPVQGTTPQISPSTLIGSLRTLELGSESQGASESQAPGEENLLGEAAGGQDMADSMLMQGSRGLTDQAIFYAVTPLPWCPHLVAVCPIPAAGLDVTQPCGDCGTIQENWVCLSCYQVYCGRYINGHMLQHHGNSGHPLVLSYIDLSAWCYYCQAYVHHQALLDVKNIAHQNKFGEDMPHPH

MDA-MB-231 [2] = assay: Antiproliferative activity against human MDA-MB-231 cells measured after 48 hrs; type: functional, cell-based; settings: MDA-MB-231, 48 h
MDA-MB-468 = assay: Antiproliferative activity against human MDA-MB-468 cells measured after 48 hrs; type: functional, cell-based; settings: MDA-MB-468, 48 h
[3] = Solubility of the compound; type: physicochemical
Histone deacetylase 1 = Histone deacetylase 1 (Homo sapiens, UniProt Q13547); assay: Binding affinity to HDAC1 in human MDA-MB-231 cells assessed as increase in thermal stability at 10 uM measured at 6 hrs by CETSA; type: cell-based
Histone deacetylase 3 [4] = biological target: T2, Histone deacetylase 3 (Homo sapiens, UniProt O15379); assay: Binding affinity to HDAC3 in human MDA-MB-231 cells assessed as increase in thermal stability at 10 uM measured at 6 hrs by CETSA; type: cell-based
[5] = biological target: T3, Protein deacetylase HDAC6 (Homo sapiens) (UniProt Q9UBN7); assay: Binding affinity to HDAC6 in human MDA-MB-231 cells assessed as increase in thermal stability at 10 uM measured at 6 hrs by CETSA; type: cell-based
T3 sequence (whole entry): T1 sequence (Q9UBN7 whole entry)

MDA-MB-231 [6] = assay: Antiproliferative activity against human MDA-MB-231 cells assessed as inhibition of clone formation at 2.5 to 10 uM; type: functional, cell-based; settings: dose 2.5-10 µM
Histone deacetylase 3 [7] = biological target: T2, Histone deacetylase 3; assay: Inhibition of HDAC3 (unknown origin)
[8] = biological target: T3, Protein deacetylase HDAC6 (Homo sapiens); assay: Inhibition of HDAC6 in human MDA-MB-231 cells assessed as accumulation of acetylated tubulin at 5 to 20 uM by Western blot analysis; type: cell-based; settings: dose 5-20 µM
MDA-MB-231 [9] = assay: Induction of autophagy in human MDA-MB-231 cells transfected with GFP-LC3 assessed as increase in Beclin 1 level at 5 to 20 uM after 48 hrs by Western blot analysis; type: functional, cell-based; settings: dose 5-20 µM
MDA-MB-231 [10] = assay: Induction of autophagy in human MDA-MB-231 cells transfected with GFP-LC3 assessed as increase in LC3II level at 5 to 20 uM after 48 hrs by Western blot analysis; type: functional, cell-based; settings: dose 5-20 µM
MDA-MB-231 [11] = assay: Induction of apoptosis in human MDA-MB-231 cells assessed as live cells at 5 uM by annexin V/propidium iodide staining-based flow cytometry analysis (reference value: 96.7 %); type: functional
MDA-MB-231 [12] = assay: Induction of apoptosis in human MDA-MB-231 cells assessed as early apoptotic cells at 5 uM by annexin V/propidium iodide staining-based flow cytometry analysis (reference value: 0.69 %); type: functional
MDA-MB-231 [13] = assay: Induction of apoptosis in human MDA-MB-231 cells assessed as late apoptotic cells at 5 uM by annexin V/propidium iodide staining-based flow cytometry analysis (reference value: 2.34 %); type: functional
MDA-MB-231 [14] = assay: Induction of apoptosis in human MDA-MB-231 cells assessed as live cells at 10 uM by annexin V/propidium iodide staining-based flow cytometry analysis (reference value: 96.7 %); type: functional
MDA-MB-231 [15] = assay: Induction of apoptosis in human MDA-MB-231 cells assessed as early apoptotic cells at 10 uM by annexin V/propidium iodide staining-based flow cytometry analysis (reference value: 0.69 %); type: functional
MDA-MB-231 [16] = assay: Induction of apoptosis in human MDA-MB-231 cells assessed as late apoptotic cells at 10 uM by annexin V/propidium iodide staining-based flow cytometry analysis (reference value: 2.34 %); type: functional
MDA-MB-231 [17] = assay: Induction of apoptosis in human MDA-MB-231 cells assessed as necrotic cells at 10 uM by annexin V/propidium iodide staining-based flow cytometry analysis (reference value: 0.099 %); type: functional
MDA-MB-231 [18] = assay: Induction of apoptosis in human MDA-MB-231 cells assessed as early apoptotic cells at 20 uM by annexin V/propidium iodide staining-based flow cytometry analysis (reference value: 0.69 %); type: functional
MDA-MB-231 [19] = assay: Induction of apoptosis in human MDA-MB-231 cells assessed as late apoptotic cells at 20 uM by annexin V/propidium iodide staining-based flow cytometry analysis (reference value: 2.34 %); type: functional
MDA-MB-231 [20] = assay: Induction of apoptosis in human MDA-MB-231 cells assessed as necrotic cells at 20 uM by annexin V/propidium iodide staining-based flow cytometry analysis (reference value: 0.099 %); type: functional
MDA-MB-231 [21] = assay: Inhibition of cell migration in human MDA-MB-231 cells assessed as decrease in MMP-2 expression at 5 to 20 uM after 48 hrs by Western blot analysis; type: functional, cell-based; settings: dose 5-20 µM
MDA-MB-231 [22] = assay: Inhibition of cell migration in human MDA-MB-231 cells assessed as increase in E-cadherin expression at 5 to 20 uM after 48 hrs by Western blot analysis; type: functional, cell-based; settings: dose 5-20 µM

T2 sequence (O15379 whole entry): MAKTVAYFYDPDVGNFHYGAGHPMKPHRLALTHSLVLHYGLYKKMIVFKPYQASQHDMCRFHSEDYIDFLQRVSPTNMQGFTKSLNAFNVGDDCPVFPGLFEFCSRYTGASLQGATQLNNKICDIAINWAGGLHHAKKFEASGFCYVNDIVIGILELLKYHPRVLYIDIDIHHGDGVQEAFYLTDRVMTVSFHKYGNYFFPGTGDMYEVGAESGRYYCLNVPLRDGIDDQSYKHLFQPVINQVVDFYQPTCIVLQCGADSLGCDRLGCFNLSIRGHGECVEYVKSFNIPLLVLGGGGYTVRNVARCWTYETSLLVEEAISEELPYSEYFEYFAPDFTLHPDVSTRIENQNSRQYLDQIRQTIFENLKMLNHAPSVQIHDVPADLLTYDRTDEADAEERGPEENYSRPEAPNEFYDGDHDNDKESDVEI
Histone deacetylase 1, sequence (Q13547 whole entry): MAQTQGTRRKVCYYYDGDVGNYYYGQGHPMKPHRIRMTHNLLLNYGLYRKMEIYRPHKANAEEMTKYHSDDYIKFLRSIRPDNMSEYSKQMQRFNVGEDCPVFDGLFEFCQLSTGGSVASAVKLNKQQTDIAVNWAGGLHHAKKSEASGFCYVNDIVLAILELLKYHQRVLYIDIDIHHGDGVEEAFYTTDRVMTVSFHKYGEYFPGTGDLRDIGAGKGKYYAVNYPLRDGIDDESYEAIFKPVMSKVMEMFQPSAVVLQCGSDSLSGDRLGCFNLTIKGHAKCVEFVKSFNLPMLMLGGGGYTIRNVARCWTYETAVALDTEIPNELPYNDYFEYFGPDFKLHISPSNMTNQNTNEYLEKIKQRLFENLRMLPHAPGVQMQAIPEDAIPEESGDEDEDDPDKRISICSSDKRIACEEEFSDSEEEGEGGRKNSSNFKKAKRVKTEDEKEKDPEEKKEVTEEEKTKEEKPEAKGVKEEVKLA

IC50 [1]: 0.056 µM
IC50 (MDA-MB-231 [2]): 8.4 µM
IC50 (MDA-MB-468): 14.3 µM
solubility [3]: Insoluble
Activity (Histone deacetylase 1): inactive
Activity (Histone deacetylase 3 [4]): inactive
Activity [5]: Active
IC50 (Histone deacetylase 3 [7]): 0.414 µM
inhibition [8]: Active
SMILES: CN1CCN(c2nc(-c3ccc(C(=O)NO)cc3)nc3cc(Cl)ccc23)CC1
inhibition (MDA-MB-231 [6]): Active
Activity (MDA-MB-231 [9]): Active
Activity (MDA-MB-231 [10]): Active
Activity (MDA-MB-231 [11]): 88.1%
Activity (MDA-MB-231 [12]): 4.84%
Activity (MDA-MB-231 [13]): 6.39%
Activity (MDA-MB-231 [14]): 69.1%
Activity (MDA-MB-231 [15]): 7.95%
Activity (MDA-MB-231 [16]): 22.4%
Activity (MDA-MB-231 [17]): 0.49%
Activity (MDA-MB-231 [18]): 11.3%
Activity (MDA-MB-231 [19]): 34.3%
Activity (MDA-MB-231 [20]): 0.46%
inhibition (MDA-MB-231 [21]): Active
inhibition (MDA-MB-231 [22]): Active
